Our source for the MIC and IC50 values is ChEMBL document CHEMBL3399990, “Synthesis of mycothiol conjugate analogues and evaluation of their antimycobacterial activity” (Bioorg Med Chem Lett, 2015).

Test [1] deals with Mycolicibacterium smegmatis. Put plainly: Bacteriostatic activity against Mycobacterium smegmatis after 96 hrs by resazurin fluorescence assay. The test is classed as functional. (In general: The colour change of resazurin is a common sign of viable cells or microbes.)
The nature of test [2]: Cytotoxicity against human HL60 cells after 48 hrs by MTT assay. Particulars: HL-60, 48 h. The test is classed as functional, cell-based.
A further test concerns 1A9. Put plainly: Cytotoxicity against human 1A9 cells after 48 hrs by MTT assay. Particulars: 1A9, 48 h. The class given is functional, cell-based. A general note: Tetrazolium assays rely on reduction of a dye to a coloured formazan, in cell work by metabolically active cells.

≈ marks a conversion by molar mass, not a printed value. Some results are limits rather than exact numbers.

As to `N[C@@H](CSC(Cl)=C(Cl)Cl)C(=O)N[C@@H]1[C@@H](O)[C@H](O)[C@@H](CO)O[C@@H]1SC1CCCCC1`, in test [1], the MIC was determined as 250 µM (≈ 127 µg/mL). Besides, the IC50 in test [2] came to 76 µM; with 1A9 it was 79 µM.
For `N[C@@H](CSC(Cl)=C(Cl)Cl)C(=O)N[C@@H]1[C@@H](O)[C@H](O)[C@@H](CO)O[C@H]1SC1CCCCC1` the same measures were 250 µM (≈ 127 µg/mL), 112 µM and 121 µM.
For `CC(C)(C)OC(=O)N[C@@H](CSC(Cl)=C(Cl)Cl)C(=O)N[C@@H]1[C@@H](O)[C@H](O)[C@@H](CO)O[C@@H]1SC1CCCCC1` the same measures were over 1000 µM, 60 µM and 103 µM.
As to `CC(C)(C)OC(=O)N[C@@H](CSC(Cl)=C(Cl)Cl)C(=O)N[C@@H]1[C@@H](O)[C@H](O)[C@@H](CO)O[C@H]1SC1CCCCC1`, the minimal inhibitory concentration (MIC) in test [1] is over 1000 µM. Besides, the concentration for half-maximal inhibition (IC50) was determined as 16.5 µM in test [2] and 33 µM in the test on 1A9.

As usually defined, the MIC is the least concentration at which growth counts as inhibited. Low readings indicate greater potency, high ones weaker potency. Usually IC50 stands for the concentration that gives 50% inhibition.
